Source: patent US7501383B2, “Substituted [1,2,4]triazolo[1,5-a]pyrimidines and their use for controlling harmful fungi” (BASF Aktiengesellschaft, priority 2004, dated 2009)

SMILES: CCCCCCc1nc2nnnc-2c(N)n1C [I-2, 5-hexyl-6-methyl-7-aminotriazolopyrimidine]
- melting point: 193 to 194 °C
